# Test results published in US20150065717A1, “NIPECOTIC ACID DERIVATIVE AND USE THEREOF FOR MEDICAL PURPOSES” (Toray Industries, Inc., priority 2012, published 2015).
# Columns and labels:
# [1] = tested on: rat diabetic nephropathy model; test: Pharmacological effect in rat diabetic nephropathy model (streptozotocin); type: in vivo, rat (spontaneously hypertensive rat); conditions: mean±standard error, n=6
# Description: Example Compound 1 was administered to a rat diabetic nephropathy model (International Journal of Molecular Medicine, 2007, vol. 19, p. 571-579; Hypertension, 1998, vol. 32, p. 778-785), and the therapeutic effect of the nipecotic acid derivative (I) or a pharmaceutically acceptable salt thereof on chronic renal disease with diabetic nephropathy was evaluated.
# Rats (spontaneously hypertensive rat, male, 12 or 13 weeks old; Charles River Laboratories Japan, Inc.) with diabetic nephropathy induced by administration of an aqueous streptozotocin (Enzo Life Sciences, Inc.) solution (40 mg/kg) into the tail vein were provided as “group with induced diabetic nephropathy”. On the other hand, rats to which water for injection was similarly administered were provided as “untreated group”.
# Six weeks after administration of streptozotocin, urine was collected using a metabolic cage at room temperature for 24 hours. The urinary albumin concentration in the collected urine was measured by the ELISA method. From the urinary albumin concentration and the urine weight, the amount of urinary albumin excretion was calculated.
# To rats showing pathological conditions of diabetic nephropathy in the group with induced diabetic nephropathy, Example Compound 1 (10 mg/kg) or a positive control compound imidapril (2 mg/kg) was orally administered once per day for 20 days from Day 8 after the administration of streptozotocin. […]
# After the last administration of the test substance on Day 27 after administration of streptozotocin, urine was collected using a metabolic cage at room temperature for 24 hours. The urinary albumin concentration in the collected urine was measured by the ELISA method. From the urinary albumin concentration and the urine weight, the amount of urinary albumin excretion was calculated. In addition, on Day 18 after administration of streptozotocin, the systemic systolic pressure was measured by the tail-cuff method. On Day 29 after administration of streptozotocin, blood was collected from the abdominal aorta of each rat, and the plasma glucose concentration was measured. […]
# [2] = tested on: rat monocrotaline-administered pulmonary hypertension model; test: Action on systemic blood pressure in rat monocrotaline-administered pulmonary hypertension model, single dose; type: in vivo, rat (SD strain); conditions: single oral dose of 10 mg/kg on day 9 after monocrotaline; Hour 1, 2, 3, 4, 5 and 6 after administration
# Description: Example Compound 1 was administered to monocrotaline-administered pulmonary hypertension model rats in a single dose, and the action of the nipecotic acid derivative (I) or a pharmaceutically acceptable salt thereof on the systemic blood pressure from immediately after the administration was evaluated.
# Pulmonary hypertension was induced in Rats (SD strain, male, 11 weeks old; Charles River Laboratories Japan, Inc.) by subcutaneous administration of an aqueous monocrotaline (Sigma Corporation) solution (60 mg/kg) to the back.
# On Day 7 after administration of monocrotaline, the rats with induced pulmonary hypertension were anesthetized, and hair in the femoral region and the nape was removed, followed by disinfection of the operative field using Isodine solution. […] The blood pressure was analyzed after amplification by Blood Pressure Amplifier, and the heart rate was analyzed via Heart Rate Counter using the pulse waveform as a trigger. […] From immediately after administration of Example Compound 1 or 0.5% aqueous methyl cellulose solution supplemented with 0.5% Tween 80, the mean systemic blood pressure was measured at Hour 1, 2, 3, 4, 5 and 6 after administration.
compound,measurement,setting,value
"CCC(=O)NC1(C(=O)N2CCC[C@@H](C(=O)NCc3ccc(C#N)cc3OC(F)(F)F)C2)CCC1 [Example Compound 1, (R)—N-(4-cyano-2-(trifluoromethoxy)benzyl)-1-(1-propionamidocyclobutanecarbonyl)piperidine-3-carboxamide]",amount of urinary albumin excretion,"[1]; Day 27 after streptozotocin, orally once per day for 20 days from Day 8 (Example Compound 1 10 mg/kg, imidapril 2 mg/kg)",5.41 ± 1.13 mg/day
same,systemic systolic pressure,"[1]; day 18 after streptozotocin, 10 mg/kg orally once per day, tail-cuff",199±6 mmHg
same,mean systemic blood pressure vs pulmonary hypertension control group,[2],no significant difference
